Results published in patent US8993542B2, “Methods of treating viral infections” (priority 2008, dated 2015).
Like-named read-outs stand apart in the source and are kept apart here.

Legend:
[1] = Toxicokinetics and 7-day toxicity after oral administration of CMX157 to rats; type: in vivo; details: rat plasma
HIV-1IIIB = assay: TCID50 determination of drug-treated HIV-1IIIB; type: cell-based; set-up: TCID50, XTT Endpoint / TCID50, RT Endpoint / TCID50, P24 Endpoint: unit not given here
HIV = assay: microbe, parasite or virus in culture; type: cell-based; details: for IC50: read-out: IC50
[2] = virus treated 2 hours with 125 nM drug
[3] = virus treated 2 hours with 250 nM drug
[4] = virus treated 2 hours with 500 nM drug
[5] = virus treated 2 hours with 1000 nM drug
[6] = PANEL 40, M41L + L210W + T215Y + M184V
[7] = PANEL 41, M41L + L210W + T215Y + M184V
[8] = PANEL 44, D67N + K70R + T215F + K219E + M184V

C[C@H](Cn1cnc2c(N)ncnc21)OCP(=O)(O)O [TFV, (R)-9-(2-phosphonylmethoxypropyl)adenine]
AUC0-24 ([1]; oral CMX157 10 mg/kg, day 1): 510.8 ng·h/mL | AUC0-∞ ([1]; oral CMX157 10 mg/kg, day 1): 775.2 ng·h/mL | Cmax ([1]; oral CMX157 10 mg/kg, day 1): 55.35 ng/mL | Tmax ([1]; oral CMX157 10 mg/kg, day 1): 2.0 h | t1/2elim ([1]; oral CMX157 10 mg/kg, day 1): 10.9 h | AUC0-24 ([1]; oral CMX157 10 mg/kg, day 7): 964.7 ng·h/mL | AUC0-∞ ([1]; oral CMX157 10 mg/kg, day 7): 1,226.9 ng · h/ml | Cmax ([1]; oral CMX157 10 mg/kg, day 7): 49.55 ng/mL | Tmax ([1]; oral CMX157 10 mg/kg, day 7): 2.4 h | t1/2elim ([1]; oral CMX157 10 mg/kg, day 7): 9.2 h | AUC0-24 ([1]; oral CMX157 30 mg/kg, day 1): 1,456.1 ng · h/ml | AUC0-∞ ([1]; oral CMX157 30 mg/kg, day 1): 1,808.1 ng · h/ml | Cmax ([1]; oral CMX157 30 mg/kg, day 1): 109.10 ng/mL | Tmax ([1]; oral CMX157 30 mg/kg, day 1): 4.0 h | t1/2elim ([1]; oral CMX157 30 mg/kg, day 1): 10.1 h | AUC0-24 ([1]; oral CMX157 30 mg/kg, day 7): 2,363.4 ng · h/ml | AUC0-∞ ([1]; oral CMX157 30 mg/kg, day 7): 2,790.5 ng · h/ml | Cmax ([1]; oral CMX157 30 mg/kg, day 7): 149.25 ng/mL | Tmax ([1]; oral CMX157 30 mg/kg, day 7): 4.0 h | t1/2elim ([1]; oral CMX157 30 mg/kg, day 7): 7.6 h | AUC0-24 ([1]; oral CMX157 100 mg/kg, day 1): 3,039.3 ng · h/ml | AUC0-∞ ([1]; oral CMX157 100 mg/kg, day 1): 3,639.5 ng · h/ml | Cmax ([1]; oral CMX157 100 mg/kg, day 1): 181.40 ng/mL | Tmax ([1]; oral CMX157 100 mg/kg, day 1): 12.0 h | t1/2elim ([1]; oral CMX157 100 mg/kg, day 1): 7.2 h | AUC0-24 ([1]; oral CMX157 100 mg/kg, day 7): 5,715.4 ng · h/ml | AUC0-∞ ([1]; oral CMX157 100 mg/kg, day 7): 7,373.4 ng · h/ml | Cmax ([1]; oral CMX157 100 mg/kg, day 7): 322.00 ng/mL | Tmax ([1]; oral CMX157 100 mg/kg, day 7): 12.0 h | t1/2elim ([1]; oral CMX157 100 mg/kg, day 7): 9.0 h | effect on viral replication (HIV-1IIIB; up to 1000 nM, 2 hours): no discernible effect | Fold Decrease From VC, P24 Endpoint (HIV-1IIIB; [2]): (0) Fold | Fold Decrease From VC, RT Endpoint (HIV-1IIIB; [2]): (1.1) Fold | Fold Decrease From VC, XTT Endpoint (HIV-1IIIB; [2]): (1.1) Fold | TCID50, P24 Endpoint (HIV-1IIIB; [2]): 43056 | TCID50, RT Endpoint (HIV-1IIIB; [2]): 72449 | TCID50, XTT Endpoint (HIV-1IIIB; [2]): 4027 | Fold Decrease From VC, P24 Endpoint (HIV-1IIIB; [3]): (0) Fold | Fold Decrease From VC, RT Endpoint (HIV-1IIIB; [3]): (1.1) Fold | Fold Decrease From VC, XTT Endpoint (HIV-1IIIB; [3]): (0) Fold | TCID50, P24 Endpoint (HIV-1IIIB; [3]): 36227 | TCID50, RT Endpoint (HIV-1IIIB; [3]): 72449 | TCID50, XTT Endpoint (HIV-1IIIB; [3]): 4529 | Fold Decrease From VC, P24 Endpoint (HIV-1IIIB; [4]): (0) Fold | Fold Decrease From VC, RT Endpoint (HIV-1IIIB; [4]): (0) Fold | Fold Decrease From VC, XTT Endpoint (HIV-1IIIB; [4]): (0) Fold | TCID50, P24 Endpoint (HIV-1IIIB; [4]): 37328 | TCID50, RT Endpoint (HIV-1IIIB; [4]): 81289 | TCID50, XTT Endpoint (HIV-1IIIB; [4]): 4529 | Fold Decrease From VC, P24 Endpoint (HIV-1IIIB; [5]): (0) Fold | Fold Decrease From VC, RT Endpoint (HIV-1IIIB; [5]): (1.3) Fold | Fold Decrease From VC, XTT Endpoint (HIV-1IIIB; [5]): (0) Fold | TCID50, P24 Endpoint (HIV-1IIIB; [5]): 36227 | TCID50, RT Endpoint (HIV-1IIIB; [5]): 64570 | TCID50, XTT Endpoint (HIV-1IIIB; [5]): 4529 | IC50 Fold Change (HIV; PANEL 1, WT): 0.79 | IC50 (HIV; PANEL 1, WT): 613 nM | IC50 Fold Change (HIV; PANEL 2, WT): 0.85 | IC50 (HIV; PANEL 2, WT): 652 nM | IC50 Fold Change (HIV; PANEL 3, 6 TAMs, no 184): 3.47 | IC50 (HIV; PANEL 3, 6 TAMs, no 184): 2670 nM | IC50 Fold Change (HIV; PANEL 6, 6 TAMs + 184): 2.16 | IC50 (HIV; PANEL 6, 6 TAMs + 184): 1670 nM | IC50 Fold Change (HIV; PANEL 7, 184V): 0.69 | IC50 (HIV; PANEL 7, 184V): 534 nM | IC50 Fold Change (HIV; PANEL 9, 69ins, no 184): 22.00 | IC50 (HIV; PANEL 9, 69ins, no 184): 17000 nM | IC50 Fold Change (HIV; PANEL 12, 69ins + 184): 4.72 | IC50 (HIV; PANEL 12, 69ins + 184): 3640 nM | IC50 Fold Change (HIV; PANEL 14, 65R, no 184): 1.71 | IC50 (HIV; PANEL 14, 65R, no 184): 1320 nM | IC50 Fold Change (HIV; PANEL 15, 65R + 184V): 1.22 | IC50 (HIV; PANEL 15, 65R + 184V): 940 nM | IC50 Fold Change (HIV; PANEL 17, L74V): 0.62 | IC50 (HIV; PANEL 17, L74V): 476 nM | IC50 Fold Change (HIV; PANEL 19, L74V + M184V): 0.29 | IC50 (HIV; PANEL 19, L74V + M184V): 227 nM | IC50 Fold Change (HIV; PANEL 26, 151M, no 184): 2.26 | IC50 (HIV; PANEL 26, 151M, no 184): 1740 nM | IC50 Fold Change (HIV; PANEL 28, 151M + 184): 1.43 | IC50 (HIV; PANEL 28, 151M + 184): 1100 nM | IC50 Fold Change (HIV; PANEL 29, L74V − SDM): 0.69 | IC50 (HIV; PANEL 29, L74V − SDM): 535 nM | IC50 Fold Change (HIV; PANEL 30, M184V − SDM): 0.54 | IC50 (HIV; PANEL 30, M184V − SDM): 413 nM | IC50 Fold Change (HIV; PANEL 31, K65R − SDM): 2.01 | IC50 (HIV; PANEL 31, K65R − SDM): 1550 nM | IC50 Fold Change (HIV; PANEL 33, T215Y): 2.39 | IC50 (HIV; PANEL 33, T215Y): 1840 nM | IC50 Fold Change (HIV; PANEL 34, T215Y + M184V): 0.81 | IC50 (HIV; PANEL 34, T215Y + M184V): 624 nM | IC50 Fold Change (HIV; PANEL 35, M41L + T215Y): 1.84 | IC50 (HIV; PANEL 35, M41L + T215Y): 1420 nM | IC50 Fold Change (HIV; PANEL 37, M41L + T215Y + M184V): 1.34 | IC50 (HIV; PANEL 37, M41L + T215Y + M184V): 1030 nM | IC50 Fold Change (HIV; PANEL 38, M41L + L210W + T215Y): 2.80 | IC50 (HIV; PANEL 38, M41L + L210W + T215Y): 2160 nM | IC50 Fold Change (HIV; PANEL 39, M41L + L210W + T215Y): 3.01 | IC50 (HIV; PANEL 39, M41L + L210W + T215Y): 2320 nM | IC50 Fold Change (HIV; [6]): 0.97 | IC50 (HIV; [6]): 751 nM | IC50 Fold Change (HIV; [7]): 1.02 | IC50 (HIV; [7]): 789 nM | IC50 Fold Change (HIV; PANEL 42, D67N + K70R): 2.56 | IC50 (HIV; PANEL 42, D67N + K70R): 1970 nM | IC50 Fold Change (HIV; [8]): 0.91 | IC50 (HIV; [8]): 703 nM | IC50 Fold Change (HIV; PANEL 45, L210W + T215Y): 1.34 | IC50 (HIV; PANEL 45, L210W + T215Y): 1030 nM | IC50 Fold Change (HIV; PANEL 46, D67N + K70E): 0.96 | IC50 (HIV; PANEL 46, D67N + K70E): 738 nM | IC50 Fold Change (HIV; PANEL 47, D67N + K70E + M184V): 0.64 | IC50 (HIV; PANEL 47, D67N + K70E + M184V): 495 nM | IC50 Fold Change (HIV; PANEL 48, K70E + M184V): 0.61 | IC50 (HIV; PANEL 48, K70E + M184V): 472 nM
